Laboratory results published in BindingDB's records for patent US11814384 (Kinnate Biopharma, 2023).
pIC50: −log10 of the molar value. “Also recorded” adds a separate entry of the source.

Target: Serine/threonine-protein kinase B-raf (Homo sapiens, UniProt P15056)
Assay: Enzymatic BRAF Kinase Activity Assay
Protocol: Small molecule inhibition of the BRAF kinases was measured using ADP-Glo assay. In the assay, […], resulting in luciferase reaction and luminescent readout with light generated proportional to the relative kinase activity. Compounds diluted in DMSO were used in 10-point, 3-fold dose curve for both assays. Final concentrations of 6 nM BRAF (CarnaBio, Cat. 09-122) or 3 nM RAF1 (CarnaBio, Cat. 09-125) and 30 nM MEK1 substrate (Millipore, Cat. 14-420) were incubated with 3 µM ATP, 10 mM MgCl2, 0.003% Brij-35, 2 mM DTT, 0.05% BSA, 1 mM EGTA, and 50 mM HEPES for 90 minutes at room temp prior to addition of ADP-Glo reagent (Promega, Cat. V9102) for 40 minutes, and detection reagent for 45 minutes. Luminescence was read on an Envision plate reader (PerkinElmer) and percent remaining activity was used to calculate IC50 using a four-parameter fit model using Dotmatics Knowledge Solutions Studies curve fitting (Dotmatics, Bishops Stortford, UK, CM23).

Serine/threonine-protein kinase B-raf, sequence (P15056 whole entry): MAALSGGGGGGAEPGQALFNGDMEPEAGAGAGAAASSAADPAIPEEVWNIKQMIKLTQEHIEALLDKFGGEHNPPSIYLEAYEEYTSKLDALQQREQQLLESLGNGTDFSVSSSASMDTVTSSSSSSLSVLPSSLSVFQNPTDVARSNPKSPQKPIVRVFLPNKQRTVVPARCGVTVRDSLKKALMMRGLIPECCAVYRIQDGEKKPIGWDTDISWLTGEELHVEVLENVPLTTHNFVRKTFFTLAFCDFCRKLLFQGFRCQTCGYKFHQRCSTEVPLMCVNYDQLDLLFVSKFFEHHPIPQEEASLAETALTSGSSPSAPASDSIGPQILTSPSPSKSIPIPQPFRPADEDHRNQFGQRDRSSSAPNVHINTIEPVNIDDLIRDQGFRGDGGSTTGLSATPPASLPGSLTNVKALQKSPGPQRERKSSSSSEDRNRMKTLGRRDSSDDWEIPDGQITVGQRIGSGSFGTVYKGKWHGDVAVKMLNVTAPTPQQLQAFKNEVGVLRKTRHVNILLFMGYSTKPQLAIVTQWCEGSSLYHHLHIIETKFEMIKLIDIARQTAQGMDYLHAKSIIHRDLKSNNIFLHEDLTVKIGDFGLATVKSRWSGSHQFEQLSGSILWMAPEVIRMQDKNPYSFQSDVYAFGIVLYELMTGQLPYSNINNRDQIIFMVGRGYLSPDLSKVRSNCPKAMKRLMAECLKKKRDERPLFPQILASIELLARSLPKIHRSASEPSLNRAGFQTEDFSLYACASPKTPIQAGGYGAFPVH

Row | IC50 | pIC50 | SMILES
1 | in the range around 5.5 nM | – | Cc1cc(F)c(NC(=O)N2CC[C@@H](CC(F)(F)F)C2)cc1-c1cc(N2CCOCC2)c2nn(C)cc2c1 [US11814384, Example 1]
2 | in the range around 5.5 nM | – | Cc1cc(F)c(NC(=O)N2CC[C@@H](CC(F)(F)F)C2)cc1-c1cc(N2CCOCC2)c2nn(C)c(C)c2c1 [US11814384, Example 16]
3 | in the range around 5.5 nM | – | Cc1cc(F)c(NC(=O)N2CC[C@@H](CC(F)(F)F)C2)cc1-c1cc(N2CCOCC2)c2nccn2c1 [US11814384, Example 17]
4 | – | 8.00 to 9.00 | Cc1cc(F)c(NC(=O)N2CC=C(C(F)(F)C(F)(F)F)C2)cc1-c1cc(N2CCOCC2)c2nccn2c1 [US11814384, Example 22]
5 | – | 8.00 to 9.00 | Cc1cc(F)c(NC(=O)N2CCC(C(F)(F)C(F)(F)F)C2)cc1-c1cc(N2CCOCC2)c2nccn2c1 (stereo not drawn) [US11814384, Example 23]
6 | in the range around 5.5 nM | – | Cc1ccc(NC(=O)c2ccnc(C(F)(F)F)c2)cc1-c1cc(N2CCOCC2)c2nc3c(n2c1)COCC3 [US11814384, Example 33]
7 | – | 8.00 to 9.00 | Cc1ccc(NC(=O)c2ccnc(C(F)(F)F)c2)cc1-c1cc(N2CCOCC2)c2nc3c(n2c1)CC(O)CC3 (stereo not drawn) [US11814384, Example 34]
8 | in the range around 5.5 nM | – | Cc1ccc(NC(=O)c2ccnc(C(F)(F)F)c2)cc1-c1cc(N2CCOCC2)c2nc3c(n2c1)CCOC3 [US11814384, Example 36]
9 | in the range around 5.5 nM | – | Cc1ccc(NC(=O)N2CC[C@@H](CC(F)(F)F)C2)cc1-c1cc(N2CC3CCC(C2)O3)c2nccn2c1 [US11814384, Example 38]
10 | in the range around 5.5 nM | – | Cc1cc(F)c(NC(=O)c2ccn(C(C)(C)C)c2)cc1-c1cc(N2CCOCC2)c2nccn2c1 [US11814384, Example 43]
11 | in the range around 5.5 nM | – | Cc1cc(F)c(NC(=O)[C@@H]2CCN(CC(F)(F)F)C2)cc1-c1cc(N2CCOCC2)c2nccn2c1 [US11814384, Example 46]
12 | in the range around 5.5 nM | – | Cc1cc(F)c(NC(=O)N2CCOC(C(C)(C)C)C2)cc1-c1cc(N2CCOCC2)c2nccn2c1 (stereo not drawn) [US11814384, Example 50]
13 | in the range around 5.5 nM | – | Cc1cc(F)c(NC(=O)c2cn(C(C)(C)C)cc2F)cc1-c1cc(N2CCOCC2)c2nccn2c1 [US11814384, Example 66]
14 | in the range around 5.5 nM | – | Cc1cc(F)c(NC(=O)c2cn(C(C)(C)C)cn2)cc1-c1cc(N2CCOCC2)c2nccn2c1 [US11814384, Example 67]
15 | in the range around 5.5 nM | – | Cc1cc(F)c(NC(=O)N2CC=C(C3(C)CC3)C2)cc1-c1cc(N2CCOCC2)c2nccn2c1 [US11814384, Example 69]
16 | in the range around 5.5 nM | – | Cc1cc(F)c(NC(=O)c2cncc(C(F)(F)F)c2)cc1-c1cc(N2CCOCC2)c2nccn2c1 [US11814384, Example 70]
17 | in the range around 5.5 nM | – | Cc1ccc(NC(=O)c2cnn(C(C)(C)C)c2F)cc1-c1cc(N2CCOCC2)c2nccn2c1 [US11814384, Example 73]
18 | in the range around 5.5 nM | – | Cc1cc(F)c(NC(=O)N2CCC(C(C)(C)C(F)(F)F)C2)cc1-c1cc(N2CCOCC2)c2nccn2c1 (stereo not drawn) [US11814384, Example 74]
19 | in the range around 5.5 nM | – | CCc1nc2cc(-c3cc(C(=O)Nc4cn(C(C)(C)C)nc4F)c(F)cc3C)cc(N3CCOCC3)n2n1 [US11814384, Example 76]
20 | in the range around 5.5 nM | – | Cc1cc(F)c(NC(=O)c2cncc(C(C)(F)F)c2)cc1-c1cc(N2CCOCC2)c2nccn2c1 [US11814384, Example 84]
21 | in the range around 5.5 nM | – | Cc1cc(F)c(NC(=O)c2cn(C(C)(C)C)nn2)cc1-c1cc(N2CCOCC2)c2nccn2c1 [US11814384, Example 86]
22 | in the range around 55 nM | – | Cc1ccc(NC(=O)c2cc(C(C)(C)C)ncc2F)cc1-c1cc(N2CCOCC2)c2nccn2c1 [US11814384, Example 95]
23 | in the range around 5.5 nM | – | CC(C)(C)n1ncc(C(=O)Nc2cc(-c3cc(N4CCOCC4)c4nccn4c3)c(Cl)cc2F)c1F [US11814384, Example 98]
24 | in the range around 55 nM | – | O=C(Nc1cc(-c2cc(N3CCOCC3)c3nccn3c2)c(F)cc1F)N1CC[C@@H](CC(F)(F)F)C1 [US11814384, Example 99]
25 | in the range around 5.5 nM | – | Cc1cc(F)c(NC(=O)c2cnn(C(C)(C)C)c2F)cc1-c1cc(N2CCOCC2)c2nccn2c1 [US11814384, Example 103]
26 | in the range around 5.5 nM | – | CC(C)(C)n1ncc(C(=O)Nc2ccc(Cl)c(-c3cc(N4CCOCC4)c4nccn4c3)c2)c1F [US11814384, Example 110]

Row | IC50 | pIC50 | SMILES
27 | in the range around 55 nM | – | Cc1cc(F)c(NC(=O)c2cnn(C(C)(C)C)c2F)cc1-c1cc(N2CCOCC2)c2ncc(F)n2c1 [US11814384, Example 111]
28 | in the range around 55 nM | – | Cc1cc(F)c(N)cc1-c1cc(N2CCOCC2)c2nccn2c1 [US11814384, Example 112]
29 | in the range around 5.5 nM | – | Cc1cc(F)c(NC(=O)c2ccnc(C(C)C(F)F)c2)cc1-c1cc(N2CCOCC2)c2nccn2c1 (stereo not drawn) [US11814384, Example 113]
30 | in the range around 5.5 nM | – | Cc1cc(F)c(NC(=O)c2cn(C(C)(C)C)c(F)n2)cc1-c1cc(N2CCOCC2)c2nccn2c1 [US11814384, Example 118]
31 | in the range around 5.5 nM | – | Cc1cc(F)c(NC(=O)N2CC(F)C(C(C)C)C2)cc1-c1cc(N2CCOCC2)c2nccn2c1 (stereo not drawn) [US11814384, Example 119]
32 | in the range around 5.5 nM | – | Cc1cc(F)c(NC(=O)c2cnn(C(C)(C)C(F)F)c2)cc1-c1cc(N2CCOCC2)c2nccn2c1 [US11814384, Example 124]
33 | in the range around 5.5 nM | – | Cc1cc(F)c(NC(=O)c2cnn(C(F)C(C)(C)F)c2)cc1-c1cc(N2CCOCC2)c2nccn2c1 (stereo not drawn) [US11814384, Example 125]
34 | in the range around 5.5 nM | – | Cc1cc(F)c(NC(=O)c2cnn(C(C)(C)C(F)(F)F)c2)cc1-c1cc(N2CCOCC2)c2nccn2c1 [US11814384, Example 136]
35 | in the range around 5.5 nM | – | Cc1ncc(NC(=O)c2cnn(C(C)(C)C)c2F)cc1-c1cc(N2CCOCC2)c2nccn2c1 [US11814384, Example 137]
36 | in the range around 5.5 nM | – | Cc1cnc(NC(=O)c2cnn(C(C)(C)C)c2F)cc1-c1cc(N2CCOCC2)c2nccn2c1 [US11814384, Example 138]
37 | in the range around 5.5 nM | – | Cc1cn2cc(-c3cc(NC(=O)c4cn(C(C)(C)C)cn4)c(F)cc3C)cc(N3CCOCC3)c2n1 [US11814384, Example 140]
38 | in the range around 5.5 nM | – | Cc1cc(F)c(NC(=O)c2nn(C(C)(C)C)cc2F)cc1-c1cc(N2CCOCC2)c2nccn2c1 [US11814384, Example 141]
39 | in the range around 5.5 nM | – | Cc1ccc(NC(=O)c2nn(C(C)(C)C)cc2F)cc1-c1cc(N2CCOCC2)c2nccn2c1 [US11814384, Example 142]
40 | in the range around 5.5 nM | – | Cc1cn2cc(-c3cc(NC(=O)c4cnn(C(C)(C)C)c4F)c(F)cc3C)cc(N3CCOCC3)c2n1 [US11814384, Example 143]
41 | in the range around 5.5 nM | – | Cc1cn2cc(-c3cc(NC(=O)c4cn(C(C)(C)C)c(F)n4)c(F)cc3C)cc(N3CCOCC3)c2n1 [US11814384, Example 148]
42 | in the range around 5.5 nM | – | CC(C)(C)n1cc(C(=O)Nc2cc(-c3cc(N4CCOCC4)c4nccn4c3)c(Cl)cc2F)nc1F [US11814384, Example 151]
43 | in the range around 5.5 nM | – | Cc1cc(F)c(NC(=O)c2cnn(C(C)(C)C)c2F)cc1-c1cc(C2=CCOCC2)c2nccn2c1 [US11814384, Example 153]
44 | in the range around 5.5 nM | – | Cc1c(-c2cc(N3CCOCC3)c3nccn3c2)cc(NC(=O)c2cnn(C(C)(C)C)c2F)c(F)c1F [US11814384, Example 159]
45 | in the range around 5.5 nM | – | Cc1cc(F)c(NC(=O)c2ncn(C(C)(C)C)c2F)cc1-c1cc(N2CCOCC2)c2nccn2c1 [US11814384, Example 160]
46 | in the range around 5.5 nM | – | Cc1cc(F)c(NC(=O)c2cnn(C(C)(C)C)c2F)cc1-c1cc(N2CCOCC2)n2nccc2c1 [US11814384, Example 162]
47 | in the range around 5.5 nM | – | Cc1cc(F)c(NC(=O)c2cnn(C34CC(C3)C4)c2)cc1-c1cc(N2CCOCC2)c2nccn2c1 [US11814384, Example 164]
48 | in the range around 5.5 nM | – | Cc1cc(F)c(NC(=O)c2ccnc(N3CCCC3)c2)cc1-c1cc(N2CCOCC2)c2nccn2c1 [US11814384, Example 166]
49 | in the range around 5.5 nM | – | Cc1cc(F)c(NC(=O)c2cnn(C(C)(C)C)c2F)cc1-c1cc(N2CC3CCC(C2)O3)c2nccn2c1 [US11814384, Example 180]
50 | in the range around 5.5 nM | – | Cc1cc(F)c(NC(=O)c2cnn(C(C)(C)C)c2F)cc1-c1cc(N2CCOCC2)c2ncnn2c1 [US11814384, Example 181]
51 | in the range around 5.5 nM | – | Cc1cc(F)c(NC(=O)c2cnc(C(C)(C)C)o2)cc1-c1cc(N2CCOCC2)c2nccn2c1 [US11814384, Example 183]

Row | SMILES | IC50 | pIC50
52 | Cc1cc(F)c(NC(=O)N2CCC(C3(C(F)(F)F)CC3)C2)cc1-c1cc(N2CCOCC2)c2nccn2c1 (stereo not drawn) [US11814384, Example 60] | in the range around 5.5 nM; also recorded: in the range around 55 nM | –
53 | Cc1cc(F)c(NC(=O)N2CCC(C(C)C(F)F)C2)cc1-c1cc(N2CCOCC2)c2nccn2c1 (stereo not drawn) [US11814384, Example 87] | in the range around 5.5 nM; also recorded: in the range around 55 nM | –
